Patent US11786492B2, “Therapeutic agent for phosphodiesterase inhibition and its related disorders” (Novalead Pharma Inc, priority 2017, dated 2023)

Key:
[1] = tested on: human PBMCs; assay: Cell viability of human PBMCs, Alamar blue; assay type: cell-based
Procedure: Fresh human blood from healthy volunteer was collected in anticoagulant (5 mM) ethylene diamine tetra acetic acid (EDTA) containing tubes. The growth medium used was RPMI-1640 medium (with 3% FBS) and incubated at 37° C. for 60 mins in a 5% CO2 incubator with vehicle used as 1% DMSO. The cell viability was checked at various time points using Alamar blue and fluorescence readings were taken at excitation of 544 nm and emission of 590 nm.

[2] = tested on: HaCaT cells; assay: Cell viability of HaCaT cells, Alamar blue; assay type: cell-based, human
Procedure: (§1) HaCaT cells were maintained in T-75 cm2 flask in Dulbecco's modified Eagle medium supplemented with FBS (10%), L-glutamine (2 mM), penicillin (100 ug/ml), streptomycin (100 ug/ml) at 37° C. in 5% CO2 incubator. Cell growth was maintained to 70-80% confluence for seeding and vehicle used was 1% DMSO. The cell viability was checked at various time points using Alamar blue and fluorescence readings were taken at excitation of 544 nm and emission of 590 nm.

[3] = target: PDE7A (Homo sapiens, UniProt Q13946); assay: Fluorescence polarization assay PDE7A; assay type: biochemical; settings: substrate cAMP
Procedure: (§2) An experiment to check inhibition of various subtypes of the target Phosphodiesterase (PDE) enzyme in in-vitro assay was performed. […] PDE1A, PDE2A, PDE4A, PDE4B, PDE4C, PDE4D, PDE5A, PDE7A, PDE9A, PDE10A.

[4] = target: PDE4C (Homo sapiens, UniProt Q08493); assay: Fluorescence polarization assay PDE4C; assay type: biochemical; settings: substrate cAMP
Procedure: as §2

[5] = target: T1, PDE2 (Human platelets) (Homo sapiens, UniProt O00408); assay: Radiolabeled enzyme assay PDE2; assay type: biochemical; settings: read-out: % inhibition at 30 μM, 1.01 μM [3H]cAMP+cAMP
T1 construct: PDE2 (Human platelets); from tissue; host or cells: human platelets
Procedure: (§3) Enzyme assays have been optimized for incubation time, substrate concentration and method of end-product determination.

[6] = tested on: HaCaT cells; assay: Keratinocyte (HaCaT) proliferation, MTT assay; assay type: cell-based, human; settings: Homo sapiens, HaCaT, 72 h; read-out: IC50 of cell proliferation
Procedure: An experiment to check keratinocyte proliferation inhibitory activity of selected compounds of Formula-I was performed to establish its application in skin disorders related to keratinocyte hyper-proliferation. HaCaT cells, a human immortalized cell line derived from keratinocytes, representing hyper-proliferating keratinocytes was investigated for anti-proliferative potential of the selected compounds by MTT assay.

[7] = target: PDE9A (Homo sapiens, UniProt O76083); assay: Fluorescence polarization assay PDE9A; assay type: biochemical; settings: substrate cGMP
Procedure: as §2

[8] = target: PDE4B (Homo sapiens, UniProt Q07343); assay: Fluorescence polarization assay PDE4B; assay type: biochemical; settings: substrate cAMP
Procedure: as §2

[9] = target: PDE1A (Homo sapiens, UniProt P54750); assay: Fluorescence polarization assay PDE1A; assay type: biochemical; settings: substrate cGMP, Ca-CaM
Procedure: as §2

[10] = target: T2, PDE5 (Human platelets) (Homo sapiens, UniProt O76074); assay: Radiolabeled enzyme assay PDE5; assay type: biochemical; settings: read-out: % inhibition at 30 μM, 1.01 μM [3H]cGMP+cGMP
T2 construct: PDE5 (Human platelets); from tissue; host or cells: human platelets
Procedure: as §3

[11] = tested on: IL-6; assay: IL-6 release from stimulated HaCaT cells, ELISA; assay type: cell-based, human; settings: for IL-6 Conc.: IFN-γ 50 ng/mL, 48 hrs
Procedure: as §1
(§4) HaCaT cells were stimulated with different stimulators as follows: • a. Cells were exposed to stimulator LPS at 1 μg/mL for 48 hrs to stimulate IL-1β • b. Cells were exposed to stimulator IFN-γ at 50 ng/mL for 48 hrs to stimulate TNF-α, IL-6
(§5) After 48 hrs supernatants were collected and centrifuged to remove any cell debris and aliquots were used for ELISA.

[12] = target: PDE2A (Homo sapiens, UniProt O00408); assay: Fluorescence polarization assay PDE2A; assay type: biochemical; settings: substrate cGMP
Procedure: as §2

[13] = target: PDE4A (Homo sapiens, UniProt P27815); assay: Fluorescence polarization assay PDE4A; assay type: biochemical; settings: substrate cAMP
Procedure: as §2

[14] = tested on: TNF-α; assay: TNF-α release from stimulated HaCaT cells, ELISA; assay type: cell-based, human; settings: IFN-γ 50 ng/mL, 48 hrs
Procedure: as §1, §4, §5

[15] = target: PDE10A (Homo sapiens, UniProt Q9Y233); assay: Fluorescence polarization assay PDE10A; assay type: biochemical; settings: substrate cAMP
Procedure: as §2

[16] = tested on: Imiquimod induced psoriasis in BALB/c mice; assay: Imiquimod induced psoriasis model in Balb/c mice; settings: for % inhibition of Ear inflamn. / Histopathology Scores Epidermal Thickness / Histopathology Scores Hyperkeratosis / Histopathology Scores Rete Peg Prolifern. / PASI score / Spleen weight / IL23 Levels: twice daily; for IL23 Levels: ear tissue lysate
Procedure: BALB/c mice (Sex: Female, Age: 7-8 Weeks) were used for induction of psoriasis using IMQ. Topical application of imiquimod (IMQ) in mice can induce and exacerbate psoriasis closely resembling human psoriasis. […] 3%, 4% and 5% and positive control of Tenovate (Clobetasol) 0.05% cream. In all 63 mg cream containing 5% of IMQ was applied to dorsal area (shaved back) and right ear for 8 days. Topical formulations from Example 7 were used during this experiment.
The parameters investigated were ear thickness change, % inhibition of ear inflammation, Psoriatic Area Severity Index (PASI). Histopathology was performed of right ear and dorsal skin by H & E staining. The biomarker in this study was inflammatory cytokine IL-23 analyzed by ELISA obtained from tissue lysate of ear region where IMQ and doses were applied.

[17] = target: PDE5A (Homo sapiens, UniProt O76074); assay: Fluorescence polarization assay PDE5A; assay type: biochemical; settings: substrate cGMP
Procedure: as §2

T1 sequence (O00408 whole entry): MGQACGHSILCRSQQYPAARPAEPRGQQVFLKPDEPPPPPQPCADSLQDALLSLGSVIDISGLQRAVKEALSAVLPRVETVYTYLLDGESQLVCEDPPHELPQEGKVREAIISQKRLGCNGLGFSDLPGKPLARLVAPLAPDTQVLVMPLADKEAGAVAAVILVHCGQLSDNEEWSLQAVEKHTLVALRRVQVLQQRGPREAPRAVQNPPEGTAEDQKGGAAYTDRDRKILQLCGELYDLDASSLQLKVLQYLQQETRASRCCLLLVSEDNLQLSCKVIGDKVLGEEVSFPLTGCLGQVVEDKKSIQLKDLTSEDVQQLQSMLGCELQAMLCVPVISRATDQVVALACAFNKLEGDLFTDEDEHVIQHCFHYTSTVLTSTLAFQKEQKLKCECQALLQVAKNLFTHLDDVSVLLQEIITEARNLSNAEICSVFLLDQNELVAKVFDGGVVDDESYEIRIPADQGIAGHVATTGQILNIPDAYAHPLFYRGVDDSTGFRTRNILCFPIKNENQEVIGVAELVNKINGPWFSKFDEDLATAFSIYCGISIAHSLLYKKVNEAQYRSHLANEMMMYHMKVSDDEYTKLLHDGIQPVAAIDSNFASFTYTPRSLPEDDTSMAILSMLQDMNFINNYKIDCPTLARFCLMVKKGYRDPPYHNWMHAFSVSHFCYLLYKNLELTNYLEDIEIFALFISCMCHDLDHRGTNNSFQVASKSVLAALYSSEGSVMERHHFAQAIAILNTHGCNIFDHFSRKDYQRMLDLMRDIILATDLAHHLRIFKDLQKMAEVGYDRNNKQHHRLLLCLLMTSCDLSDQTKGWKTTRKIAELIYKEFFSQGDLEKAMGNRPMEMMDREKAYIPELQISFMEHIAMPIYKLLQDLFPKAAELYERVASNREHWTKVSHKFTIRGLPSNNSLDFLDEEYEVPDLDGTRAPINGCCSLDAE
Chain of PDE2A (O00408 whole entry, species assumed): as the sequence (O00408 whole entry) above
Chain of PDE10A (Q9Y233 whole entry, species assumed): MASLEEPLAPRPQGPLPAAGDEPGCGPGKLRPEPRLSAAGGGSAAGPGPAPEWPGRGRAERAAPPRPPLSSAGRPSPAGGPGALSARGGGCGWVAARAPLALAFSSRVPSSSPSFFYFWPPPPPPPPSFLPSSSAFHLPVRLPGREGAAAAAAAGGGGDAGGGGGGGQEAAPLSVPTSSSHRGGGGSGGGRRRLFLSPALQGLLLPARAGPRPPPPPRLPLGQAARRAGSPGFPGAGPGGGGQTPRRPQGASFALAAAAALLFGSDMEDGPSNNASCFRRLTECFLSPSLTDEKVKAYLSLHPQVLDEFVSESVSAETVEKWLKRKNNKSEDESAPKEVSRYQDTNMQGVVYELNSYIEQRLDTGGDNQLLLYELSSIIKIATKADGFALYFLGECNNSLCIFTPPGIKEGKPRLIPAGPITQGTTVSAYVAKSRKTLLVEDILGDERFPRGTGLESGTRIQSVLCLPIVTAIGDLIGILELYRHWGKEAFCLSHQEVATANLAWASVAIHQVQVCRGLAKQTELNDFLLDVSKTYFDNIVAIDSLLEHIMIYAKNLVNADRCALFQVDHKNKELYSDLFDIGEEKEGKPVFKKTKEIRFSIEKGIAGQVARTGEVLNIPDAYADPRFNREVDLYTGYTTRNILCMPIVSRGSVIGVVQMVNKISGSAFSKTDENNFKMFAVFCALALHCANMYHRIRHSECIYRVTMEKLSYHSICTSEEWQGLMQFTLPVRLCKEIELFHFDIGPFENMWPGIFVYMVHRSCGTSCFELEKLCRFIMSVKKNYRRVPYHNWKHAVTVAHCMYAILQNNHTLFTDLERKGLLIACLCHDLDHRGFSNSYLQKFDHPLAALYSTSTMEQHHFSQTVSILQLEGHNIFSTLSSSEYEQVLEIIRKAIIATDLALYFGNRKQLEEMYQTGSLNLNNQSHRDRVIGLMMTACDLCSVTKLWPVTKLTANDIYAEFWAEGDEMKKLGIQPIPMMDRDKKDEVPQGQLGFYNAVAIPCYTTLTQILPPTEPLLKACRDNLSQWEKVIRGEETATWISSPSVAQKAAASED
Chain of PDE9A (O76083 whole entry, species assumed): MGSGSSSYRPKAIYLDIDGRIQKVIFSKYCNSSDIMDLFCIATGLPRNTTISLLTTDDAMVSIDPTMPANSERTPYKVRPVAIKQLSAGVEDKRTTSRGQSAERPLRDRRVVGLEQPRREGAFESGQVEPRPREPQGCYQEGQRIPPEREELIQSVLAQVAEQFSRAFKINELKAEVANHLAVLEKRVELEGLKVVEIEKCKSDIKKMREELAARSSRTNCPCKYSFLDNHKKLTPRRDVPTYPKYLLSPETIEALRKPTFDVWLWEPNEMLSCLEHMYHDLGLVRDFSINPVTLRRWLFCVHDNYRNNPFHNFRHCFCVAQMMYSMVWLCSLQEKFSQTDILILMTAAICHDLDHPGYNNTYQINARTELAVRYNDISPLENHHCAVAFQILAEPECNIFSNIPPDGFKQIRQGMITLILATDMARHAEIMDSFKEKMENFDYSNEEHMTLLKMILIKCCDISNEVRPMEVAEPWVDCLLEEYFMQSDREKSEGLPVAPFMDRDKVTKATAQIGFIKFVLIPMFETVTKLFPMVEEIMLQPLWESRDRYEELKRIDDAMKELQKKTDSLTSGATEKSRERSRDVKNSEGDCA
Chain of PDE4A (P27815 whole entry, species assumed): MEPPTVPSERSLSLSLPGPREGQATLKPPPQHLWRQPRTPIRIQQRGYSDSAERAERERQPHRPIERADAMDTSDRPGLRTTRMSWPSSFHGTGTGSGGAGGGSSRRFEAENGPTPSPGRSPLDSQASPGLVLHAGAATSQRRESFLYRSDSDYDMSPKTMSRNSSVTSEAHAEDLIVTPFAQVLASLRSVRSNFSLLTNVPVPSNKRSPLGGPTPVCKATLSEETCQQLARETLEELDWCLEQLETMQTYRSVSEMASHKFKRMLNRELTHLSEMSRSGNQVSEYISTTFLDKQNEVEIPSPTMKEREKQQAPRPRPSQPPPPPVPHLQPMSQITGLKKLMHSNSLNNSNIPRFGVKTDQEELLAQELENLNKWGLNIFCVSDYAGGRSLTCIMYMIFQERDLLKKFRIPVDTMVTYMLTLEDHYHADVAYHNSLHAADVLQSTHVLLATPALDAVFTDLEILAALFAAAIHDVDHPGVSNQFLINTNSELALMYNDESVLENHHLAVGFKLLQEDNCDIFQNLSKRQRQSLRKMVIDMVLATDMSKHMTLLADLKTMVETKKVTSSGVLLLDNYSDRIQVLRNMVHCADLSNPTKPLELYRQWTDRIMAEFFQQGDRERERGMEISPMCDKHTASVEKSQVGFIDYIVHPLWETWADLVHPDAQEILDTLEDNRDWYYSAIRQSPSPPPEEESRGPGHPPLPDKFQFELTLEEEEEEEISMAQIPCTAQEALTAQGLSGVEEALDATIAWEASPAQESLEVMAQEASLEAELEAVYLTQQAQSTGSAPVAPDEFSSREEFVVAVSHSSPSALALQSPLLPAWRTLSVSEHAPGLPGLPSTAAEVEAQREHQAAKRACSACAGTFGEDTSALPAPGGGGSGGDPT
Chain of PDE4B (Q07343 whole entry, species assumed): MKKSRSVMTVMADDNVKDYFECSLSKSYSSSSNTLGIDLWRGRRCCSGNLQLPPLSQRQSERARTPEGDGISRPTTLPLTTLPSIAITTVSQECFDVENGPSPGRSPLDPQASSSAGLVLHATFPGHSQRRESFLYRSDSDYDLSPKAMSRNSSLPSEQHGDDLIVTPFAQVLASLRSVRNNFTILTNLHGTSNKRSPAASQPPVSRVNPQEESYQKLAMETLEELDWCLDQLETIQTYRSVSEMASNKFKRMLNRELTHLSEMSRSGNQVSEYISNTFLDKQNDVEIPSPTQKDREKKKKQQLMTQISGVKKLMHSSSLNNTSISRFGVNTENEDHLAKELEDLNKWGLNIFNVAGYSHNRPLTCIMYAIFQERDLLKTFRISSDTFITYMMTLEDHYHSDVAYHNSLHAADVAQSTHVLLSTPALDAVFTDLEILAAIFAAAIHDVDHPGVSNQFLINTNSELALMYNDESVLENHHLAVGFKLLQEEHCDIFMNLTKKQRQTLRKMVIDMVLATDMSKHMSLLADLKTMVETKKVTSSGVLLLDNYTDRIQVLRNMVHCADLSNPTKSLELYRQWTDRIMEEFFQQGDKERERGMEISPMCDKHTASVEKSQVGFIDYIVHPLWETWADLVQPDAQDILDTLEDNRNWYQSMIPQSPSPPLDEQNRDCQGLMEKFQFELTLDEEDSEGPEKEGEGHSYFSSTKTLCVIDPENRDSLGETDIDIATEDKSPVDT
Chain of PDE4C (Q08493 whole entry, species assumed): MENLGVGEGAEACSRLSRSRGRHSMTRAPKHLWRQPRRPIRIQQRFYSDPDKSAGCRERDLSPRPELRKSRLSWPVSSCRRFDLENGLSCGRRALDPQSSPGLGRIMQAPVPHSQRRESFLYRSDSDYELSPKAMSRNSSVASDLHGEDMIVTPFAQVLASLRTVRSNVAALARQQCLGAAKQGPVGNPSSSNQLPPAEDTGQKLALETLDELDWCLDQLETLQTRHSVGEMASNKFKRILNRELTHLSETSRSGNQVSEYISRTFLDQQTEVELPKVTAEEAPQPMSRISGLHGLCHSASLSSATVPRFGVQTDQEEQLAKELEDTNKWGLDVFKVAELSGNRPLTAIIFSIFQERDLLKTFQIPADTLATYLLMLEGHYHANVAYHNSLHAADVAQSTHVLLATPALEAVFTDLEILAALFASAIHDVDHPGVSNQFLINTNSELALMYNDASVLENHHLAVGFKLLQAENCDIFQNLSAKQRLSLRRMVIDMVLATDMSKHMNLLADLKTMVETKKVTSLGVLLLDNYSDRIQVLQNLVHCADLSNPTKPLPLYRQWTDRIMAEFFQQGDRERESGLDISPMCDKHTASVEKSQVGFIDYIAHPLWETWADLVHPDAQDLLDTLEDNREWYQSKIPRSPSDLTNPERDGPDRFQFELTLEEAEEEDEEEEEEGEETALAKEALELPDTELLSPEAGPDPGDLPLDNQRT

For `COc1cccc2c1C(=O)c1c(O)c3c(c(O)c1C2=O)C[C@@](O)(C(=O)CO)C[C@@H]3O[C@H]1C[C@H](N)[C@H](O)[C@H](C)O1` [Doxorubicin], the “% Viability (±S.E.M.)” value ([1]; 3 μM, 24 hrs) was 110 ± 1%, the “% Viability (±S.E.M.)” value ([1]; 3 μM, 48 hrs) was 70 ± 5% and the “% Viability (±S.E.M.)” value ([1]; 3 μM, 72 hrs) was 52 ± 1%. The “% Viability (±S.E.M.)” value ([2]; 3 μM, 24 hrs) was 74 ± 6%, the “% Viability (±S.E.M.)” value ([2]; 3 μM, 48 hrs) was 108 ± 5% and the “% Viability (±S.E.M.)” value ([2]; 3 μM, 72 hrs) was 110 ± 2%.

`O=C(Nc1ccc([N+](=O)[O-])cc1Cl)c1cc(Cl)ccc1O` [Niclosamide] was tested, and the “% Viability (±S.E.M.)” value ([1]; 0.01 μM, 24 hrs) was 134 ± 7%, the “% Viability (±S.E.M.)” value ([1]; 0.01 μM, 48 hrs) was 107 ± 1% and the “% Viability (±S.E.M.)” value ([1]; 0.01 μM, 72 hrs) was 107 ± 6%. The “% Viability (±S.E.M.)” value ([1]; 1 μM, 24 hrs) was 94 ± 4%, the “% Viability (±S.E.M.)” value ([1]; 1 μM, 48 hrs) was 63 ± 0% and the “% Viability (±S.E.M.)” value ([1]; 1 μM, 72 hrs) was 60 ± 1%. The “% Viability (±S.E.M.)” value ([1]; 100 μM, 24 hrs) was 27 ± 5%, the “% Viability (±S.E.M.)” value ([1]; 100 μM, 48 hrs) was 2 ± 1% and the “% Viability (±S.E.M.)” value ([1]; 100 μM, 72 hrs) was −2 ± 0%. The IC50 [3] was 19.1 µM, the IC50 [4] was 20.2 µM and the inhibition at 30 µM [5] was 16%. For the same compound, the IC50 [6] was 3.25 µM, the IC50 [7] was 59.8 µM and the IC50 [8] was 69.1 µM. For the same compound, the IC50 [9] was 88.7 µM, the inhibition at 30 µM [10] was 49% and the “% Viability (±S.E.M.)” value ([2]; 0.1 μM, 24 hrs) was 111 ± 9%. The “% Viability (±S.E.M.)” value ([2]; 0.1 μM, 48 hrs) was 82 ± 3%, the “% Viability (±S.E.M.)” value ([2]; 0.1 μM, 72 hrs) was 98 ± 6% and the “% Viability (±S.E.M.)” value ([2]; 1 μM, 24 hrs) was 62 ± 4%. For the same compound, the “% Viability (±S.E.M.)” value ([2]; 1 μM, 48 hrs) was 46 ± 0%, the “% Viability (±S.E.M.)” value ([2]; 1 μM, 72 hrs) was 59 ± 11% and the “% Viability (±S.E.M.)” value ([2]; 5 μM, 24 hrs) was 48 ± 1%. For the same compound, the “% Viability (±S.E.M.)” value ([2]; 5 μM, 48 hrs) was 36 ± 2%, the “% Viability (±S.E.M.)” value ([2]; 5 μM, 72 hrs) was 45 ± 8% and the “% Viability (±S.E.M.)” value ([2]; 10 μM, 48 hrs) was 29 ± 1%. The “% Viability (±S.E.M.)” value ([2]; 10 μM, 72 hrs) was 33 ± 2%, the “% Viability (±S.E.M.)” value ([2]; 50 μM, 24 hrs) was 28 ± 1% and the “% Viability (±S.E.M.)” value ([2]; 50 μM, 48 hrs) was 16 ± 0%. The “% Viability (±S.E.M.)” value ([2]; 50 μM, 72 hrs) was 23 ± 7%, the “IL-6 Conc.” value ([11]; 0.05 μM) was 103 ± 4 pg/mL and the “IL-6 Conc.” value ([11]; 0.1 μM) was 76 ± 4 pg/mL. The “IL-6 release in HaCaT cells (in words)” value ([11]; 0.25 μM) was “Reduction in IL-6 release”, the “IL-6 Conc.” value ([11]; 0.25 μM) was 54 ± 11 pg/mL and the IC50 [12] was 11.6 µM. For the same compound, the IC50 [13] was 100 µM, the “TNF-α Conc.” value ([14]; 0.05 μM) was 2.5 ± 0.1 pg/mL and the “TNF-α Conc.” value ([14]; 0.1 μM) was 2.8 ± 0.1 pg/mL. For the same compound, the “TNF-α Conc.” value ([14]; 0.25 μM) was 2.5 ± 0.1 pg/mL, the IC50 [15] was 19 µM and the “% inhibition of Ear inflamn.” value ([16]; 1% topical) was 27.1%. For the same compound, the “Histopathology Scores Epidermal Thickness” value ([16]; 1% topical) was 6.8 ± 0.2, the “Histopathology Scores Hyperkeratosis” value ([16]; 1% topical) was 0.8 ± 0.2 and the “Histopathology Scores Rete Peg Prolifern.” value ([16]; 1% topical) was 1.8 ± 0.2. For the same compound, the PASI score ([16]; 1% topical) was 15.8 ± 3.0, the “Spleen weight” value ([16]; 1% topical, Day 9) was 265.2 ± 49.2 mg and the “IL23 Levels” value ([16]; 1% topical) was 119.9 ± 7.8 pg/mL. For the same compound, the “% inhibition of Ear inflamn.” value ([16]; 2% topical) was 30.4%, the “Histopathology Scores Epidermal Thickness” value ([16]; 2% topical) was 5.6 ± 0.8 and the “Histopathology Scores Hyperkeratosis” value ([16]; 2% topical) was 1.4 ± 0.2. The “Histopathology Scores Rete Peg Prolifern.” value ([16]; 2% topical) was 1.4 ± 0.2, the PASI score ([16]; 2% topical) was 17.2 ± 1.7 and the “Spleen weight” value ([16]; 2% topical, Day 9) was 214.4 ± 15.1 mg. For the same compound, the “IL23 Levels” value ([16]; 2% topical) was 96.6 ± 10.9 pg/mL, the “reduction in the PASI score” value ([16]; 3% concentration) was “up to 50%” and the “% inhibition of Ear inflamn.” value ([16]; 3% topical) was 42.7%. The “Histopathology Scores Epidermal Thickness” value ([16]; 3% topical) was 5.2 ± 0.2, the “Histopathology Scores Hyperkeratosis” value ([16]; 3% topical) was 1.0 ± 0.0^$ and the “Histopathology Scores Rete Peg Prolifern.” value ([16]; 3% topical) was 0.5 ± 0.2. The PASI score ([16]; 3% topical) was 10.7 ± 4.1, the “Spleen weight” value ([16]; 3% topical, Day 9) was 229.7 ± 18.7 mg and the “IL23 Levels” value ([16]; 3% topical) was 83.6 ± 9.8 pg/mL. For the same compound, the “Spleen weight vs disease control (in words)” value ([16]; Niclosamide 2%, Nitazoxanide 3% and 5%, Clobetasol 0.05%, Day 9) was “marginal reduction in spleen weight”, the “IL-23 level in ear tissue homogenates (in words)” value ([16]; different doses) was “reduction of IL-23 level” and the “Hyperkeratosis (in words)” value ([16]; ear lobe histopathology) was “significant reduction in Hyperkeratosis”. For the same compound, the IC50 [17] was 16.7 µM.
